Test results from patent publication US7776882B2, “2-amino-3,4-dihydro-quinoline derivatives useful as inhibitors of β-secretase (BACE)” (priority 2006, dated 2010).

What was measured:
human BACE-1 = target: T1, human BACE-1 (Homo sapiens, UniProt P56817); assay: In Vitro BACE Assay run by CEREP (Example 14); format: biochemical; conditions: recombinant enzyme, 60 min at 37° C., pH 4.5; for inhibition at 1 µM / % Inhibition 1 μM: 1 μM compound; for inhibition at 0.3 µM: 0.3 μM compound
T1 construct: purchased CEREP (contract assay) 761-B
T1 sequence (P56817 46-501): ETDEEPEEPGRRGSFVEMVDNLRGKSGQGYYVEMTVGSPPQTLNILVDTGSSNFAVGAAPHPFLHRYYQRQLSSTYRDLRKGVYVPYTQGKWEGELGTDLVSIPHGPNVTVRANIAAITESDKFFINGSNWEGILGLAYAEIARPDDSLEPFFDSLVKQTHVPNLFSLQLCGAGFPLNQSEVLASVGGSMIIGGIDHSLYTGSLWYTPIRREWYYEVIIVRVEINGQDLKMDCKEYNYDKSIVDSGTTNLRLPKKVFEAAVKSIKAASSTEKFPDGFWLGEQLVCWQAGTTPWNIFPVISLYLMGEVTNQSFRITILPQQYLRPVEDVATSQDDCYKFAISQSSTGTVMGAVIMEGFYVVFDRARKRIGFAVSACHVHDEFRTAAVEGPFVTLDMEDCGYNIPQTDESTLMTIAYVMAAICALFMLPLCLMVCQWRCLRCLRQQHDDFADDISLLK
Experimental: This assay was run by CEREP (Catalog Ref. 761-B, Referred to SOP No. 1C131; ERMOLIEFF, J., LOY, J. A., KOELSCH, G. and TANG, J., Proteolytic activation of recombinant pro-memapsin 2 (pro-BACE) studied with new fluorogenic substrates, Biochemistry, (2000) Vol. 39, p. 12450).
More specifically the assay, run at 50 μL in a 96 well plate, evaluated the effect of test compound on the activity of the human BACE-1 quantified by measuring the formation of Mca-S-E-V-N-L-NH2 from Mca-S-E-V-N-L-D-A-E-F-R-K(Dnp)-R-R-NH2, using a recombinant enzyme.
The test compound, reference compound or water (control) was added to a buffer containing 0.09 M sodium acetate (pH 4.5) and 0.25 μg BACE-1. Compound interference with the fluorimetric detection method due to autofluorescence was then checked by measurements at the wavelengths defined to evaluate the enzyme activity. Thereafter, the reaction was initiated by adding 7.5 μM of the substrate Mca-S-E-V-N-L-D-A-E-F-R-K(Dnp)-R-R-NH2 and the mixture was incubated for 60 min at 37° C. For control basal measurement, the substrate was omitted from the reaction mixture. Immediately after the incubation, the fluorescence intensity emitted by the reaction product Mca-S-E-V-N-L-NH2 was measured at λex=320 nm and λem=405 nm using a microplate reader (Ultra, Tecan). The standard inhibitory reference compound was OM99-2, which was tested in each experiment at several concentrations to obtain an inhibition curve from which its IC50 value was calculated.

β-secretase (BACE) = target: T2, β-secretase (BACE) (Homo sapiens, UniProt P56817); assay: In Vitro BACE FS1 % Inhibition Assay (Example 10); format: biochemical; conditions: FS1 substrate, values below about 25% (including negative) within noise; for % Inhibition (Example 10) @ 0.3 μM: 0.3 μM compound; for % Inhibition (Example 10) @ 1 μM: 1 μM compound; for % Inhibition (Example 10) @ 3 μM: 3 μM compound
T2 construct: purchased Panvera
T2 sequence (P56817 46-501): as above
Experimental: The following assay buffers were prepared and used in this assay: (1) enzyme assay buffer (0.05 M sodium acetate, pH5, 0.1% PEG8000 (w/v)), (2) substrate assay buffer (0.05 M sodium acetate, pH5), and (3) compound vehicle (30% DMSO in 50 mM HEPES, pH 7.4).
The FS1-substrate stock solution was prepared in DMSO as a 10 mg/mL solution. The FS1-substrate working solution was prepared by diluting the 10 mg/mL stock solution with substrate assay buffer to a final concentration of 300 μg/mL. The β-secretase (BACE) working solution was prepared by diluting a 0.83 mg/mL BACE stock solution with enzyme assay buffer to a final concentration of 4 μg/mL.
Test compounds were dissolved in DMSO to 10 mM. Compounds were further diluted in vehicle to various concentrations in the range of 405 μM to 4.05 μM (13.5×final compound concentration in screening plate).
The screening procedure for this assay was as follows: 15 μL of BACE working solution was pipetted into each well of a 96-well plate. To each well was then pipetted 2 μL of test compound at the selected concentration. Test compound and BACE were then mixed with a pipettor and incubated for 20 min at room temperature. To each well was then added 10 μL of the FS1 substrate working solution. The plates were then incubated for 1 hour at room temperature. The fluorescence for each well was then measured on an LJL analyst (Ex 360 nm/Em 530 nm).
The procedure for the blank (negative control) was as follows. 15 μL of assay buffer was pipetted into each well to be used as a blank control. To each well was then added 2 μL of vehicle and 10 μL of FS1-substrate working solution. The plates were then incubated for 1 hour at room temperature. The fluorescence was measured on an LJL analyst (Ex 360 nm/Em 530 nm).
The procedure for the positive control was as follows: 15 μL of BACE working solution was pipetted into each well to be used as a positive control. To each well was then pipetted 2 μL of vehicle. Vehicle and BACE were then mixed with a pipettor and incubated for 20 min at room temperature. To each well was then added 10 μL of the FS1 substrate working solution. The plates were then incubated for 1 hour at room temperature. The fluorescence (Fl) was then measured on an LJL analyst (Ex 360 nm/Em 530 nm).
For test compounds, % inhibition was determined at each concentration as follows: […]

Compound | inhibition at 1 µM (human BACE-1) [%] | IC50 (human BACE-1) [nM] | % Inhibition (Example 10) @ 0.3 μM (β-secretase (BACE)) [%] | % Inhibition (Example 10) @ 1 μM (β-secretase (BACE)) [%] | % Inhibition (Example 10) @ 3 μM (β-secretase (BACE)) [%] | also measured
Nc1nc2ccc(Oc3ccccc3)cc2cc1C(CCC(=O)NCC1CC1)C1CCOCC1 (stereo not drawn) [compound 36] | 59 | 610 |  |  |  | inhibition at 0.3 µM (human BACE-1): 49%
Nc1nc2ccc(Oc3ccccc3)cc2cc1CCNC(=O)C1CCCCC1 [compound 4] |  |  | 14 | 9 | 42 | 
Nc1nc2ccc(Oc3ccccc3)cc2cc1CCC(=O)N1CCN(c2cccc(F)c2)CC1 [compound 76] |  |  | 28 |  | 16 | 
Nc1nc2ccc(Oc3ccccc3)cc2cc1C(CCC(=O)NC1CN2CCC1CC2)C1CCOCC1 (mixture of isomers) [compound 52] |  |  |  |  |  | % Inhibition 1 μM (human BACE-1): 6%
COCCNC(=O)CCc1cc2cc(Oc3ccccc3)ccc2nc1N [compound 5] |  |  | 22 | 41 | 37 | 
Cn1ccnc1CN(CCC(C)(C)C)C(=O)CCC(c1cc2cc(Oc3ccccc3)ccc2nc1N)C1CCOCC1 (stereo not drawn) [compound 56] |  |  |  |  |  | % Inhibition 1 μM (human BACE-1): 94%
CC(C)(C)OC[C@@H](NC(=O)CC[C@H](c1cc2cc(Oc3ccccc3)ccc2nc1N)C1CCCCC1)C(=O)N1CCOCC1 [compound 45] | 46 | 1100 |  |  |  | 
CCCCNC(=O)CCc1cc2cc(Oc3ccccc3)ccc2nc1N [compound 12] |  |  | −2 | 0.8 | 19 | 
Nc1nc2ccc(Oc3ccccc3)cc2cc1C(CCC(=O)N(Cc1ccccn1)C1CCCCC1)C1CCOCC1 (stereo not drawn) [compound 60] | 83 | 320 |  |  |  | 
Nc1nc2ccc(Oc3ccccc3)cc2cc1CCC(=O)N[C@H](CO)CC1CCCCC1 [compound 14] |  |  | −14 | −27 | −15 | 
Cn1ccnc1CN(CCC(C)(C)C)C(=O)CCC(c1cc2cc(Oc3ccccc3)ccc2nc1N)C1CCCCC1 (stereo not drawn) [compound 72] |  |  |  |  |  | % Inhibition 1 μM (human BACE-1; 1 µM): 81%
COC(=O)[C@H]1CC[C@H](NC(=O)CCC(c2cc3cc(Oc4ccccc4)ccc3nc2N)C2CCCCC2)CC1 (stereo partly drawn) [compound 20] |  |  | −8 | −11 | 34 | 
Cn1ccnc1CN(CCC(C)(C)C)C(=O)CCC(c1cc2cc(Oc3ccccc3)ccc2nc1N)C1CCCCC1 (stereo not drawn) [compound 71] |  |  |  |  |  | % Inhibition 1 μM (human BACE-1; 1 µM): 73%
C=CCC(c1cc2cc(Oc3ccccc3)ccc2nc1N)C1CCCCC1 (stereo not drawn) [compound 503] |  |  | 28 | 19 | 36 | 
CC(C)(C)CN(Cc1ncc[nH]1)C(=O)CCC(c1cc2cc(Oc3ccccc3)ccc2nc1N)C1CCOCC1 (stereo not drawn) [compound 58] |  |  |  |  |  | % Inhibition 1 μM (human BACE-1): 88%
Cn1ccnc1CN(CC(C)(C)C)C(=O)CCC(c1cc2cc(Oc3ccccc3)ccc2nc1N)C1CCCCC1 (stereo not drawn) [compound 43] | 88 | 650 |  |  |  | 
CC(C)(C)CN(Cc1c[nH]cn1)C(=O)CCC(c1cc2cc(Oc3ccccc3)ccc2nc1N)C1CCOCC1 (stereo not drawn) [compound 59] |  |  |  |  |  | % Inhibition 1 μM (human BACE-1): 78%
CN(CCC(c1cc2cc(Oc3ccccc3)ccc2nc1N)C1CCCCC1)C1CCCCC1 (stereo not drawn) [compound 61] |  |  |  |  |  | % Inhibition 1 μM (human BACE-1): 15%
Nc1nc2ccc(Oc3ccccc3)cc2cc1CCCC(=O)NC12CC3CC(CC(C3)C1)C2 [compound 17] |  |  | 19 | 20 | 46 | 
Nc1nc2ccc(Oc3ccccc3)cc2cc1C(CCC(=O)N[C@H]1CC[C@H](C(=O)O)CC1)C1CCCCC1 (stereo partly drawn) [compound 22] |  |  | 0.6 | −19 | −3 | 
CCN(CC)CCNC(=O)CCc1cc2cc(Oc3ccccc3)ccc2nc1N [compound 10] |  |  | −11 | −13 | −0.3 | 
Nc1nc2ccc(Oc3ccccc3)cc2cc1C(CCC(=O)N[C@H]1CC[C@@H](C(=O)O)CC1)C1CCCCC1 (stereo partly drawn) [compound 21] |  |  | 0.5 | −1 | 10 | 
CN(C(=O)CCCc1cc2cc(Oc3ccccc3)ccc2nc1N)C1CCCCC1 [compound 18] |  |  | 29 | 26 | 36 | 
COC(=O)[C@H]1CC[C@@H](NC(=O)CCC(c2cc3cc(Oc4ccccc4)ccc3nc2N)C2CCCCC2)CC1 (stereo partly drawn) [compound 19] |  |  | −15 |  | 24 | 
Cc1ccccc1N1CCN(C(=O)CCc2cc3cc(Oc4ccccc4)ccc3nc2N)CC1 [compound 75] |  |  | 24 | −8 | 17 | 
COC(=O)CCCc1cc2cc(Oc3ccccc3)ccc2nc1N [compound 504] |  |  | 21 | 21 | 18 | 
Nc1nc2ccc(Oc3ccccc3)cc2cc1CCC(=O)NCC1CCCCC1 [compound 11] |  |  |  | 5 | 81 | 

Second part, led by results:

inhibition at 1 µM (human BACE-1) [%] | IC50 (human BACE-1) [nM] | % Inhibition (Example 10) @ 0.3 μM (β-secretase (BACE)) [%] | % Inhibition (Example 10) @ 1 μM (β-secretase (BACE)) [%] | % Inhibition (Example 10) @ 3 μM (β-secretase (BACE)) [%] | Compound | also measured
41 | 1500 |  |  |  | Nc1nc2ccc(Oc3ccccc3)cc2cc1C(CCC(=O)N(CCO)CC1CC1)C1CCOCC1 (stereo not drawn) [compound 68] | 
91 | 410 |  |  |  | Nc1nc2ccc(Oc3ccccc3)cc2cc1C(CCC(=O)N(Cc1ncc[nH]1)C1CCCCC1)C1CCOCC1 (stereo not drawn) [compound 30] | 
 | 490 |  |  |  | Cn1ccnc1CN(C(=O)CCC(c1cc2cc(Oc3ccccc3)ccc2nc1N)C1CCCCC1)C1CCCCC1 (stereo not drawn) [compound 39] | inhibition at 0.3 µM (human BACE-1): 16%
85 | 450 |  |  |  | Cn1ccnc1CN(C(=O)CCC(c1cc2cc(Oc3ccccc3)ccc2nc1N)C1CCOCC1)C1CCCCC1 (stereo not drawn) [compound 54] | 
58 | 810 |  |  |  | Nc1nc2ccc(Oc3ccccc3)cc2cc1C(CCC(=O)N(CCO)C1CCCCC1)C1CCCCC1 (stereo not drawn) [compound 42] | 
69 | 850 |  |  |  | Nc1nc2ccc(Oc3ccccc3)cc2cc1C(CCC(=O)N(CCN1CCOCC1)C1CCCCC1)C1CCOCC1 (stereo not drawn) [compound 65] | 
79 | 470 |  |  |  | Nc1nc2ccc(Oc3ccccc3)cc2cc1C(CCC(=O)N(c1ncc[nH]1)C1CCCCC1)C1CCCCC1 (stereo not drawn) [compound 41] | inhibition at 0.3 µM (human BACE-1): 11%
83 | 190 |  |  |  | Nc1nc2ccc(Oc3ccccc3)cc2cc1C(CCC(=O)N(CN1CCCC1)C1CCCCC1)C1CCOCC1 (stereo not drawn) [compound 64] | 
90 | 410 |  |  |  | Nc1nc2ccc(Oc3ccccc3)cc2cc1C(CCC(=O)N(CC1CC1)C1CCCCC1)C1CCOCC1 (stereo not drawn) [compound 67] | 
86 | 470 |  |  |  | CC(C)(C)OCCN(C(=O)CCC(c1cc2cc(Oc3ccccc3)ccc2nc1N)C1CCOCC1)C1CCCCC1 (stereo not drawn) [compound 66] | 
 | 740 |  |  |  | Nc1nc2ccc(Oc3ccccc3)cc2cc1C(CCC(=O)N(CCO)C1CCCCC1)C1CCOCC1 (stereo not drawn) [compound 50] | % Inhibition 1 μM (human BACE-1): 87%
